Target: T1, human σ2 receptor (TMEM97) (Homo sapiens, UniProt Q5BJF2)
Assay: [3H]-DTG competition binding, Expi293 membranes
Conditions: not given

T1 sequence (Q5BJF2 whole entry): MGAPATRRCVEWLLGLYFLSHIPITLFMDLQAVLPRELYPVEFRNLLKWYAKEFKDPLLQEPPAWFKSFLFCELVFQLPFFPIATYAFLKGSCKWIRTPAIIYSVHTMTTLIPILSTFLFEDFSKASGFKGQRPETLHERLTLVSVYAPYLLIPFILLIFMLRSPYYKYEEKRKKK

For `c1ccc(CCCN2CCC(c3nnc4ccccn34)CC2)cc1` [Z163048780], the Ki was > 10000 nM.

Same assay, conditions: 10 nM [3H]-DTG, 50 mM Tris pH 8.0, 37 °C, 90 min

`C1=C(c2c[nH]c3ncccc23)CCN(CCCc2ccccc2)C1` [Z1241145220] and `OC(CCc1ccccc1)CN1CC=C(c2c[nH]c3ncccc23)CC1` (centres unmarked) [Z1665845742] are within 1.5-fold of each other in Ki: 3.7 nM for the first, 5 nM for the second.

Target: T1, human σ2 receptor (TMEM97)
Assay: [3H]-DTG competition binding, Expi293 membranes
Conditions: not given
Remark: another data set of the same source

Compound `C1=C(c2c[nH]c3ccccc23)CCN(CCCc2ccccc2)C1` [Z295861754] has a Ki of 57 nM.

Same assay, conditions: 10 nM [3H]-DTG, 50 mM Tris pH 8.0, 37 °C, 90 min

Compared with ZINC450573233, ZINC895657866 is 5-fold higher in Ki: 4.3 nM for the first, 21.4 nM for the second.

Target: T1, human σ2 receptor (TMEM97)
Assay: biochemical
Assay type: Expi293 membranes
Conditions: not given

Going from `CN(C[C@]1(O)CCN(Cc2ccccc2)C1)C(=O)c1ccc(F)c2ccccc12` [ZINC000480785335] to `C[C@@H](C(=O)N(C)Cc1cccc(F)c1)N1CC=C(c2c[nH]c3ncccc23)CC1` [ZINC000533478938], the Ki rises from 12.9 nM to 34.5 nM (2.7-fold). The first binds more tightly here.

`Cc1cc(C)c2cc(CN3CCC[C@H](N4CCCC4)CC3)[nH]c2c1` [ZINC000481989921] and `Fc1c(CN2CCN(C[C@@H]3CCCO3)CC2)ccc(Br)c1Cl` [ZINC001237901728] are within 1.5-fold of each other in Ki: 21.6 nM for the first, 27 nM for the second.

Compared with `Cc1ccc(CCC2CCN(C(=O)CN3C[C@@H]4CC[C@@H](O)[C@H]4C3)CC2)cc1` [ZINC000544117725], `Cc1ccc(CC2CN(CC3(O)CCSCC3)C2)cc1` [ZINC000656714762] is 6.8-fold higher in Ki: 10 nM for the first, 67.8 nM for the second. The first binds more tightly here.

Going from `CC1CCC(O)(CN2CC(Cc3ccc(F)c(F)c3)C2)CC1` (centres unmarked) [ZINC000548355486] to `CC[C@@H](CO)N1CCC(CCc2ccc(F)cc2F)CC1` [ZINC001460312963], the Ki rises from 2.4 nM to 5.2 nM (2.2-fold).

`Cc1cccc(C)c1OC[C@H](O)CN1CC[C@@H](CC2CC2)C1` [ZINC000559413424] and `O[C@@H](COCc1ccccc1Cl)CN1CC[C@H](Cc2ccc(F)cc2)C1` [ZINC000605902355] are within 1.5-fold of each other in Ki: 10.5 nM for the first, 13.7 nM for the second.

Compared with `C1CCC([C@@H]2CCN(CCC3CCOCC3)C2)CC1` [ZINC000661577595], `O[C@@H](CN1CC[C@@H](C2CCCCC2)C1)CC1(O)CCCCC1` [ZINC001460371878] is 4.5-fold higher in Ki: 1.76 nM for the first, 7.92 nM for the second. The first binds more tightly here.

`c1ccc(N2CCC(NC[C@@H]3C[C@H]4CCC[C@@H]4O3)CC2)cc1` [ZINC000872109019] and `C[C@H](C(=O)NC[C@]1(O)CCN(CCC2CCCC2)C1)c1ccccc1` [ZINC001376084945] are within 1.5-fold of each other in Ki: 14.7 nM for the first, 13.5 nM for the second.

Going from `CC(C)(C)[C@@H]1CCN(C[C@@H](O)CC2(O)CCCCC2)C1` [ZINC000878406056] to `CC(C)CCO[C@@H]1CCN(C[C@H]2CC3(CCCCC3)CO2)C1` [ZINC001196519317], the Ki falls from 7.66 nM to 2.4 nM (3.2-fold).

First: CC(C)(NCc1ccc2c(c1)OCCO2)[C@H](O)c1ccccc1 [ZINC000895657866]
Second: O[C@@]1(CNCc2cccc3c2OCC3)CCc2ccccc21 [ZINC000921927365]
The Ki of the first is 3.1-fold lower: 21.4 nM for the first, 67.3 nM for the second. The first binds more tightly here.

`CC1CC(CN2CC(N3CCN(C(=O)[C@H](C)C4CCCC4)CC3)C2)C1` (some centres unmarked) [ZINC000941634458] and `CCc1nnsc1C(=O)N[C@H]1[C@@H]2CN(CC3CCCCCC3)C[C@@H]21` [ZINC000960887654] are within 1.5-fold of each other in Ki: 20.3 nM for the first, 18.1 nM for the second.

Going from `Fc1ccccc1[C@H]1CCN(CC#Cc2cccc(Cl)c2)C1` [ZINC001170548029] to `O[C@@H](COCc1ccccc1F)CN1CC(Cc2ccccc2C(F)(F)F)C1` [ZINC001254761628], the Ki falls from 22.6 nM to 4.7 nM (4.8-fold). The second binds more tightly here.

Target: T1, human σ2 receptor (TMEM97)
Assay: biochemical
Assay type: Expi293 membranes
Conditions: read-out: % of control remaining

First: CN(C[C@]1(O)CCN(Cc2ccccc2)C1)C(=O)c1ccc(F)c2ccccc12 [ZINC000480785335]
Second: C[C@@H](C(=O)N(C)Cc1cccc(F)c1)N1CC=C(c2c[nH]c3ncccc23)CC1 [ZINC000533478938]
The remaining activity at 1 µM of the first is higher: 9.8% for the first, 2.7% for the second.

Compared with `Cc1cc(C)c2cc(CN3CCC[C@H](N4CCCC4)CC3)[nH]c2c1` [ZINC000481989921], `Fc1c(CN2CCN(C[C@@H]3CCCO3)CC2)ccc(Br)c1Cl` [ZINC001237901728] is lower in remaining activity at 1 µM: 11.7% for the first, 4.5% for the second.

Compared with `Cc1ccc(CCC2CCN(C(=O)CN3C[C@@H]4CC[C@@H](O)[C@H]4C3)CC2)cc1` [ZINC000544117725], `Cc1ccc(CC2CN(CC3(O)CCSCC3)C2)cc1` [ZINC000656714762] is higher in remaining activity at 1 µM: 0% for the first, 9.3% for the second.

Compared with `CC1CCC(O)(CN2CC(Cc3ccc(F)c(F)c3)C2)CC1` (centres unmarked) [ZINC000548355486], `CC[C@@H](CO)N1CCC(CCc2ccc(F)cc2F)CC1` [ZINC001460312963] is higher in remaining activity at 1 µM: 0.4% for the first, 8% for the second.

First: Cc1cccc(C)c1OC[C@H](O)CN1CC[C@@H](CC2CC2)C1 [ZINC000559413424]
Second: O[C@@H](COCc1ccccc1Cl)CN1CC[C@H](Cc2ccc(F)cc2)C1 [ZINC000605902355]
The remaining activity at 1 µM of the first is higher: 11.9% for the first, 11.5% for the second.

Compared with `C1CCC([C@@H]2CCN(CCC3CCOCC3)C2)CC1` [ZINC000661577595], `O[C@@H](CN1CC[C@@H](C2CCCCC2)C1)CC1(O)CCCCC1` [ZINC001460371878] is higher in remaining activity at 1 µM: 6.4% for the first, 10.9% for the second.

First: c1ccc(N2CCC(NC[C@@H]3C[C@H]4CCC[C@@H]4O3)CC2)cc1 [ZINC000872109019]
Second: C[C@H](C(=O)NC[C@]1(O)CCN(CCC2CCCC2)C1)c1ccccc1 [ZINC001376084945]
The remaining activity at 1 µM of the first is higher: 11.6% for the first, 9.7% for the second.

First: CC(C)(C)[C@@H]1CCN(C[C@@H](O)CC2(O)CCCCC2)C1 [ZINC000878406056]
Second: CC(C)CCO[C@@H]1CCN(C[C@H]2CC3(CCCCC3)CO2)C1 [ZINC001196519317]
The remaining activity at 1 µM of the first is higher: 11.8% for the first, 1.2% for the second.

Going from `CC(C)(NCc1ccc2c(c1)OCCO2)[C@H](O)c1ccccc1` [ZINC000895657866] to `O[C@@]1(CNCc2cccc3c2OCC3)CCc2ccccc21` [ZINC000921927365], the remaining activity at 1 µM rises from 3% to 12.5%.

Going from `CC1CC(CN2CC(N3CCN(C(=O)[C@H](C)C4CCCC4)CC3)C2)C1` (some centres unmarked) [ZINC000941634458] to `CCc1nnsc1C(=O)N[C@H]1[C@@H]2CN(CC3CCCCCC3)C[C@@H]21` [ZINC000960887654], the remaining activity at 1 µM rises from 12.7% to 12.9%.

Compared with `Fc1ccccc1[C@H]1CCN(CC#Cc2cccc(Cl)c2)C1` [ZINC001170548029], `O[C@@H](COCc1ccccc1F)CN1CC(Cc2ccccc2C(F)(F)F)C1` [ZINC001254761628] is lower in remaining activity at 1 µM: 8.4% for the first, 1.1% for the second.

Source: paper doi:10.1101/2021.04.29.441652v1 (biorxiv, 2021)
